Data reported in patent publication US12365901B2, “Application of mechanical-force sensitive macrophage subset in pancreatic cancer diagnosis or prognosis evaluation” (priority 2023, dated 2025).

Experiments:
[1] = system: THP-1 macrophages; test: Elastic modulus of siRNA-transfected, PMA-induced THP-1 cells measured by nanoindenter; type: cell-based, human; details: compared with control group si-NC; PMA 50 ng/ml for 24 hours
Procedure: (§1) 1) Transfection of THP-1 cells: the cells were inoculated into a 24-well plate at a density of 2.5×10^5/ well. A transfection reagent was prepared: A: 50 μL of low serum culture medium (Opti-MEM I Reduced Serum Medium, Cat. No. 31985070, Gibco) was added with 3 μL of transfection reagent (Lipofectamine™ RNAiMAX Transfection Reagent, Cat. No. 13778075, Invitrogen). B: 50 μL of low serum culture medium (Opti-MEM I Reduced Serum Medium, Cat. No. 31985070, Gibco) was added with 1 μL of siRNA (RIBO BIO). A and B were mixed and incubated at room temperature for 5 minutes, and 50 μL of the mixture was added with the THP-1 cells to culture overnight.
(§2) 2) A cell suspension was collected and centrifuged at 1000 rpm and room temperature for 5 minutes, a supernatant was removed, and PMA (50 ng/ml, Cat. No. p1585, Sigma) was added to induce for 24 hours.
3) The cell culture medium was replaced by PBS, an instrument was calibrated by using a confocal dish, and then an elastic modulus of the cells was measured.

[2] = system: THP-1 cells; test: Flow cytometry of CD11b and CD68 after THP-1 cells are differentiated into macrophages; type: cell-based, human; details: flow cytometry after PMA-induced differentiation
Procedure: as §1, §2
4) The cells were collected, centrifuged, washed with PBS once, then added with 1 μL of Fixable Viability Stain 780 (Cat No. 565388, BD), mixed evenly, incubated on ice for 20 minutes, and washed with an FACS Buffer (2% BSA in PBS) twice. The solution was added with 2.5 μL of FC blocking antibody (Cat. No. 422302, Biolegend), blocked on ice for 20 minutes, then added with 2.5 μL of CD14-BV421 (Cat. No. 563743, BD) antibody and 1 μL of CD11b-PE (Cat. No. 101207, Biolegend) antibody, incubated on ice in the dark for 20 minutes, and then washed with an FACS Buffer twice. The solution was added with 100 μL of cell fixing solution (Cat. No. 00-8222-49, eBioscience), incubated at room temperature in the dark for 40 minutes, and then washed with a prepared membrane permeation solution (Cat. No. 00-8333-56, eBioscience) twice. The cells were resuspended to 100 μL of membrane permeation solution, added with 1.5 μL of CD68-AF647 (Cat. No. 333820, Biolegend), incubated on ice in the dark for 20 minutes, then washed with the membrane permeation solution twice, resuspended to 100 μL of FACS buffer, and detected on a computer.

Substance | elastic modulus of the THP-1 macrophages [1] | fluorescence intensity of CD11b of the THP-1 cells [2] | fluorescence intensity of CD68 of the THP-1 cells [2]
si-Ptk2b_3: siRNA targeting human Ptk2b gene: CACATGAAGTCCGATGAGA (SEQID NO. 3) (listed as DNA, chemistry not given here) | significantly reduce | significantly inhibit | significantly inhibit
si-Ptk2b_2: siRNA targeting human Ptk2b gene: GGACGAGGACTATTACAAA (SEQID NO. 2) (listed as DNA, chemistry not given here) | significantly reduce | significantly inhibit | significantly inhibit
si-Ptk2b_1: siRNA targeting human Ptk2b gene: GGATCATCATGGAATTGTA (SEQID NO. 1) (listed as DNA, chemistry not given here) | significantly reduce | significantly inhibit | significantly inhibit
